Values of other authors in US5534537A, “Prodrugs of inhibitors of farnesyl-protein transferase” (Merck & Co., Inc., priority 1995, dated 1996).

Test system: farnesyl-protein transferase
Details: via inhibition of HMG-CoA reductase, literature (Hancock et al.; Casey et al.; Schafer et al.)

Compound	Indirect inhibition of farnesyl-protein transferase in vivo
CC[C@H](C)C(=O)O[C@H]1CCC=C2C=C[C@H](C)[C@H](CC[C@@H]3C[C@@H](O)CC(=O)O3)[C@H]21 [compactin]	Indirect inhibition
CC[C@H](C)C(=O)O[C@H]1C[C@@H](C)C=C2C=C[C@H](C)[C@H](CC[C@@H]3C[C@@H](O)CC(=O)O3)[C@H]21 [lovastatin]	Indirect inhibition
